Data taken from publication PMC5967629 (Bioorganic & medicinal chemistry, 2018).

How the values were obtained:
[1] = test system: MDA-MB-435 cancer cells; assay: SRB antiproliferative assay in MDA-MB-435 cells; type: cell-based; conditions: for antiproliferative activity (in words): MDA-MB-435 cells, Table 2; for fold less potent than 1 in MDA-MB-435 cells: relative to IC50 of 1
[2] = test system: Parental SK-OV-3; assay: SRB assay in parental SK-OV-3 cells; type: cell-based; conditions: Homo sapiens, SK-OV-3, read-out: IC50 ± SD Parental SK-OV-3
[3] = Metabolite identification of 3 in human liver microsomes; type: in vitro ADME; conditions: 3 at 20 μM incubated with human liver microsomes
[4] = test system: A-10 cells; type: cell-based; conditions: for microtubule depolymerization activity (in words): A-10 cells, Table 2

Question: Which IC50 ([1]; Homo sapiens, MDA-MB-435, read-out: IC50 ± SD (MDA-MB-435) Cancer cells) does the source give for `COc1ccc(N(C)c2nc(C)nc3c2CCC3)cc1` [Compound 1] here?
Answer: 7 ± 0.7 nM

Question: And the IC50 [2]?
Answer: 11.3 ± 0.2 nM

Question: For `Cc1nc2c(c(N(C)c3ccc(O)cc3)n1)CCC2` [Compound 2, N-(4-Hydroxylphenyl)-N,2-dimethyl-6,7-dihydro-5H-cyclopenta[d]pyrimidin-4-amine], which “antiproliferative activity (in words)” value [1] is on record?
Answer: low activity

Question: With `CSc1ccc(N(C)c2nc(C)nc3c2CCC3)cc1` [Compound 3, N-(4-Methiophenyl)-N,2-dimethyl-6,7-dihydro-5H-cyclopenta[d]pyrimidin-4-amine] as the molecule, how does the “MS Peak Area in 60 min sample, HPLC area” value [3] read?
Answer: 2,061,000

Question: For `Cc1nc2c(c(N(C)c3ccc([S+](C)[O-])cc3)n1)CCC2` (stereo not shown) [Compound 5, N-(4-Methylsulfinylphenyl)-N,2-dimethyl-6,7-dihydro-5H-cyclopenta[d]pyrimidin-4-amine], which “MS Peak Area in 60 min sample, HPLC area” value [3] is on record?
Answer: 2,199,500

Question: Which results are given for `Cc1nc2c(c(N(C)c3ccc(S(C)(=O)=O)cc3)n1)CCC2` [Compound 6, N-(4-Methylsulfonylphenyl)-N,2-dimethyl-6,7-dihydro-5H-cyclopenta[d]pyrimidin-4-amine]?
Answer: microtubule depolymerization activity (in words) [4]: inactive; MS Peak Area in 60 min sample, HPLC area [3]: 98,900

Question: Which “fold less potent than 1 in MDA-MB-435 cells” value [1] does the source give for `CNc1ccc(N(C)c2nc(C)nc3c2CCC3)cc1` [Compound 7, N-(4-Methylaminophenyl)-N,2-dimethyl-6,7-dihydro-5H-cyclopenta[d]pyrimidin-4-amine] here?
Answer: 2.9 fold

Question: For `Cc1nc2c(c(N(C)c3ccc(N)cc3)n1)CCC2` [Compound 8, N-(4-Aminophenyl)-N,2-dimethyl-6,7-dihydro-5H-cyclopenta[d]pyrimidin-4-amine], which “antiproliferative activity (in words)” value [1] is on record?
Answer: low activity

Question: Which “fold less potent than 1 in MDA-MB-435 cells” value [1] does the source give for `Cc1nc2c(c(N(C)c3ccc4c(c3)CCO4)n1)CCC2` [Compound 9, N-(2,3-Dihydrobenzofuran-5-yl)-N,2-dimethyl-6,7-dihydro-5H-cyclopenta[d]pyrimidin-4-amine] here?
Answer: 1.7 fold

Question: With `COc1ccc(N(C)c2nc(C)nc3c2CCC3)cc1C` [Compound 10, N-(3-Methyl-4-methoxylphenyl)-N,2-dimethyl-6,7-dihydro-5H-cyclopenta[d]pyrimidin-4-amine] as the molecule, how does the “fold less potent than 1 in MDA-MB-435 cells” value [1] read?
Answer: about 2.6 fold

Question: With `COc1ccc(CN(C)c2nc(C)nc3c2CCC3)cc1` [Compound 12, N-(4-Methoxylphenyl)methyl-N,2-dimethyl-6,7-dihydro-5H-cyclopenta[d]pyrimidin-4-ammonium chloride] as the molecule, how does the “antiproliferative activity (in words)” value [1] read?
Answer: poor MDA-MB-435 inhibitory activity

Question: For `COc1ccc([C@H](C)N(C)c2nc(C)nc3c2CCC3)cc1` [Compound 13, N-[1(1S)-(4-Methoxylphenyl)ethyl]-N,2-dimethyl-6,7-dihydro-5H-yclopenta[d]pyrimidin-4-amine], which “microtubule depolymerization activity (in words)” value [4] is on record?
Answer: devoid of any microtubule depolymerization activity

Question: For `COc1ccc([C@@H](C)N(C)c2nc(C)nc3c2CCC3)cc1` [Compound 14, N-[1(1R)-(4-Methoxylphenyl)ethyl]-N,2-dimethyl-6,7-dihydro-5H-cyclopenta[d]pyrimidin-4-amine], which “microtubule depolymerization activity (in words)” value [4] is on record?
Answer: devoid of any microtubule depolymerization activity

Question: With “N-(4-Methoxycyclohexyl)-N,2-dimethyl-6,7-dihydro-5H-cyclopenta[d]pyrimidin-4-amine [Compound 11]” as the molecule, how does the “microtubule depolymerization activity (in words)” value [4] read?
Answer: devoid of any microtubule depolymerization activity

Question: What about the EC50 ([4]; read-out: EC50 in A-10 cells, microtubule depolymerizing activity) of the same molecule?
Answer: > 10 µM
